Results on three compounds are retold here after patent US9434724B2, “Quinuclidines for modulating alpha 7 activity” (priority 2014, dated 2016).

Like-named read-outs stand apart in the source and are kept apart here.

In one data set the target is CYP1A2 (Homo sapiens (Human), UniProt P05177). Briefly: Cytochrome P450 inhibition in human liver microsomes, CYP1A2. Particulars: read-out: 1A2 IC50, Protocol 1.
In a further data set the target is CYP2C19 (Homo sapiens (Human), UniProt P33261). Nature of the data set: Cytochrome P450 inhibition in human liver microsomes, CYP2C19. Particulars: read-out: 2C19 IC50, Protocol 1.
CYP2C19, sequence (P33261 whole entry): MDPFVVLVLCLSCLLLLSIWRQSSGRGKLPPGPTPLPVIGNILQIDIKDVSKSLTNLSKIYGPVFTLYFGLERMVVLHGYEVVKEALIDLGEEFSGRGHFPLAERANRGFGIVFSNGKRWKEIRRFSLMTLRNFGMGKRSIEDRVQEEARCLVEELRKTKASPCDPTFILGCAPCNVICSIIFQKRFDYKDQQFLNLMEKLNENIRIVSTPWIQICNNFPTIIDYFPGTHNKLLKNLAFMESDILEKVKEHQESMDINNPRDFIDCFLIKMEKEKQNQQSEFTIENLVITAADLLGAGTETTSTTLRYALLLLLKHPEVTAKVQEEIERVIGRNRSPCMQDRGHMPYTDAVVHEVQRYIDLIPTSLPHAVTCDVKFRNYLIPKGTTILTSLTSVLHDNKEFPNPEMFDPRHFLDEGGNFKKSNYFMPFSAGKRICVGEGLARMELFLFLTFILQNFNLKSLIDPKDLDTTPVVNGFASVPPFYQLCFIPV
Another data set concerns the target CYP3A4 (Homo sapiens (Human), UniProt P08684). The settings on record: microsomes, 5 min.
Data set [1] has as its target T1, rat brain nicotinic receptor (α7 NAChR) (Rattus norvegicus (Rat), UniProt Q05941). Format: binding.
Another data set deals with hERG channels (Homo sapiens (Human), UniProt Q12809). Nature of the data set: hERG inhibition assay (automated patch clamp, CHO cells). It counts as cell-based. As for the experimental part: hERG study was conducted with an automated patch clamp machine, Qpatch-48HT (Sophion Biosciences, Denmark). Cultured CHO cells stably expressing hERG channels (provided by Sophion Biosciences, Denmark) were harvested from culture flasks of 70-90% cell confluence rate and prepared as cell suspension with a cell density of 3-8×10^6 cells/mL in serum-free media (CHO-S-SFM II, cat#12052 Invitrogen; 25 mM HEPES). Cells in such condition were placed into a Qpatch cell stir chamber and used within 4 hours.
hERG channels, sequence (Q12809 whole entry): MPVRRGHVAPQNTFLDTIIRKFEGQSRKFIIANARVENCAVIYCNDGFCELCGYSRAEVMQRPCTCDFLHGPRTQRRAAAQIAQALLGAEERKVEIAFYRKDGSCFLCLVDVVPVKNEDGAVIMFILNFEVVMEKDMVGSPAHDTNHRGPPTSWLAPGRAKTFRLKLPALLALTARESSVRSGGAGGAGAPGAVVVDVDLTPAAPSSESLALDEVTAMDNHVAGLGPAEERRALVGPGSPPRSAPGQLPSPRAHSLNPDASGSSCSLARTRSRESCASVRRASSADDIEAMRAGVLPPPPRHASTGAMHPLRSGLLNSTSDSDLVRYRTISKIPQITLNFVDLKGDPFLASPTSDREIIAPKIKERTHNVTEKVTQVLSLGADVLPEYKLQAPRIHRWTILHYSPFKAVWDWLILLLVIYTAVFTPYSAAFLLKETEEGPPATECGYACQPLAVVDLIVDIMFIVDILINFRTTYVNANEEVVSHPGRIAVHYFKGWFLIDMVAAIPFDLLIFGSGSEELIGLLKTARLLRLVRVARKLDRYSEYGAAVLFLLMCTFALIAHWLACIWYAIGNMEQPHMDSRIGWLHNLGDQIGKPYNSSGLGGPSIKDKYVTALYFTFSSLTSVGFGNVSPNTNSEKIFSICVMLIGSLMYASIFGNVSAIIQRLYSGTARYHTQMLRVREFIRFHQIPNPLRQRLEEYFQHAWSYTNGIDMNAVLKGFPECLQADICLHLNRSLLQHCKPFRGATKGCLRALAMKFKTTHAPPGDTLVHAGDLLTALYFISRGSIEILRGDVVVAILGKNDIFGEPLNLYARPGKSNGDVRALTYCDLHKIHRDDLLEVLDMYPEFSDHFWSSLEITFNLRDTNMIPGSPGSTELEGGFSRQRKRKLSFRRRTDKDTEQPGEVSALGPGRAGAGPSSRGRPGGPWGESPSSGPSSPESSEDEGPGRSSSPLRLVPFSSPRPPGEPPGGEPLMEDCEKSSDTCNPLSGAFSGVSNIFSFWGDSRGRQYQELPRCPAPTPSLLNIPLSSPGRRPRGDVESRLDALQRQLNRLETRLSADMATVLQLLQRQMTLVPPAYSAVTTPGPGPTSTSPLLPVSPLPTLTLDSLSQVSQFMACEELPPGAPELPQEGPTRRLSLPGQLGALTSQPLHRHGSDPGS
For each run, cells were first spun down by the built-in Qpatch centrifuge and re-suspended in an extracellular solution (in mM, 2 CaCl2, 1 MgCl2, 4 KCl, 145 NaCl, 10 Glucose, 10 HEPES, pH 7.4, osmolarity ˜305 mOsm). Qplate-48 that holds one cell in each of its 48 channels for the later voltage-clamped assay were primed with the extracellular solution and intracellular solution (in mM, 5.4 CaCl2, 1.75 MgCl2, 120 KCl, 10 HEPES, 5 EGTA, 4 NaATP, pH 7.25, Osmolarity ˜280-295 mOsm). Cells were dispatched by Qpatch robotic dispensing guns into each Qplate channel and went through the process of giga-ohm sealing and whole cell configuration. Whole-cell recordings were performed in voltage-clamp mode at a holding potential of −80 mV. […]
On the technique in general: Block of hERG is tested as a sign of cardiac risk.

The target of another data set is CYP2C9 (Homo sapiens (Human), UniProt P11712). Nature of the data set: Cytochrome P450 inhibition in human liver microsomes, CYP2C9. The settings on record: read-out: 2C9 IC50, Protocol 1. (In general: Microsomes from liver hold many membrane-bound enzymes, among them those of drug oxidation.)
CYP2C9, sequence (P11712 whole entry): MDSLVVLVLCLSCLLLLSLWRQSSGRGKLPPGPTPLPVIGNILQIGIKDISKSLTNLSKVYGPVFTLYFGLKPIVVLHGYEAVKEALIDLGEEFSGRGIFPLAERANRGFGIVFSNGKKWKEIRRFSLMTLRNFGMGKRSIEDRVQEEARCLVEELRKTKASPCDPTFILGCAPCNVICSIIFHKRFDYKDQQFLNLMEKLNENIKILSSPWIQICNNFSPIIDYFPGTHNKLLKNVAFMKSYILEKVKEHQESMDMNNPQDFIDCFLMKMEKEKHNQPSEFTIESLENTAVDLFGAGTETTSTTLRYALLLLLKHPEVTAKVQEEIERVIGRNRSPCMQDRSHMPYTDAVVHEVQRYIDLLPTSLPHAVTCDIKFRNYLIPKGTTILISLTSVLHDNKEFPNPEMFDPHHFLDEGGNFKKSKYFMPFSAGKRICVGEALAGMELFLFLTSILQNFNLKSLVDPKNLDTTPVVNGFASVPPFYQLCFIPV
In another data set the target is Human α7 NAChR (Homo sapiens (Human), UniProt P36544). Nature of the data set: Electrophysiology screen at 1 μM in Xenopus laevis oocytes. It counts as cell-based. The settings on record: 1 μM test compound; Imax = maximal current produced by 3 mM ACh. As for the experimental part:
Human α7 NAChR plasmid was prepared by GeneWiz from accession NM_000746.5. Human α7 NAChR mRNA was prepared by TriLink at a concentration near 1 μg/μL. The human α7 NAChR mRNA was diluted in sterile water to a working concentration near 10 ng/μL.
Oocytes were obtained from Xenopus laevis frogs and treated with collagenase by Ecocyte Bioscience. Oocytes were injected with the working concentration of α7 NAChR mRNA at a volume of 50 nL for a total of approximately 0.5 ng of α7 NAChR mRNA. Oocytes were maintained in Barth's solution at a temperature of 16° C. The Barth's solution was replaced daily.
Two-electrode voltage clamp recordings were made 3-14 days following mRNA injections at a holding voltage of −70 mV. The NAChR recordings were performed in Ca^++-free Ringer solution (115 mM NaCl, 2 mM KCl, 1.8 mM BaCl2, 5 mM HEPES; pH˜7.4) to limit Ca^++-activated chloride currents.
In all oocyte recordings, drug and wash solutions were applied using a custom-designed microcapillary “linear array” which allows rapid application of agonists. Currents were recorded on a PC-based computer (PClamp, Molecular Devices, Sunnyvale, Calif.). Responses were reported as (I/Imax), where I is the amount of current given by a selected concentration of drug and Imax is the amount of maximal current produced by a 3 mM solution of ACh.
Stocks of test compounds were prepared in DMSO. Test solutions in Ringer were prepared immediately before application of test compound (final DMSO concentration of 0.1%). The final concentration of test compound in the test solution was 1 μM. The test solution was perfused onto the oocyte until a peak current was recorded. There was approximately two minutes of wash time with only the Ringer solution between each application of agonist. Measurement of the test solution was repeated between 2 and 6 times with a two minute wash time between each application of test solution. An average of the currents for each test compound was used to define the response for the test compound.

The nature of data set [2]: Caco-2 permeability assay. Format: in vitro ADME. The settings on record: human. The method, then:
Caco-2 cells were obtained from American Tissue Culture Collection (Rockville, Md.). The cells were maintained in Modified Eagle's medium (MEM), containing 10% heat-inactivated fetal bovine serum (FCS) and 1% non-essential amino acids, in CO2 at 37° C. Cells were seeded on polycarbonate filter inserts (Millipore, CAT#PSHT 010 R5).
The cells were cultivated for 21-28 days prior to the transport experiments. The transepithelial electric resistance (TEER) and Lucifer Yellow permeability were checked routinely before and after the assay. Compounds were dissolved at 10 mM in 100% dimethyl sulfoxide (DMSO) and diluted for studies in Hank's Balanced Salt Solution (HBSS, Invitrogen, Cat#14025-092) with 25 mM HEPES, pH 7.4. Compounds were tested at 10 μM, and in both the apical-to-basolateral (A-B) and basolateral-to-apical (B-A) directions, at 37° C. for 90 min. At the end of incubation, donor samples were diluted 10-fold by assay buffer, then 60 μL of receiver and diluted-donor samples were mixed with 60 μL of acetonitrile, and analyzed by LC-MS/MS. The concentrations of the compounds were quantified by standard curve.
Background: Caco-2 cells form a polarised layer with tight junctions and transporters.

In data set [3] the target is T1, rat brain nicotinic receptor (α7 NAChR). It counts as binding. Particulars: Protocol No. 2; [3H] α-Bungarotoxin 0.4 nM, rat brain P2 membrane.

T1 sequence (Q05941 23-502 limits assumed): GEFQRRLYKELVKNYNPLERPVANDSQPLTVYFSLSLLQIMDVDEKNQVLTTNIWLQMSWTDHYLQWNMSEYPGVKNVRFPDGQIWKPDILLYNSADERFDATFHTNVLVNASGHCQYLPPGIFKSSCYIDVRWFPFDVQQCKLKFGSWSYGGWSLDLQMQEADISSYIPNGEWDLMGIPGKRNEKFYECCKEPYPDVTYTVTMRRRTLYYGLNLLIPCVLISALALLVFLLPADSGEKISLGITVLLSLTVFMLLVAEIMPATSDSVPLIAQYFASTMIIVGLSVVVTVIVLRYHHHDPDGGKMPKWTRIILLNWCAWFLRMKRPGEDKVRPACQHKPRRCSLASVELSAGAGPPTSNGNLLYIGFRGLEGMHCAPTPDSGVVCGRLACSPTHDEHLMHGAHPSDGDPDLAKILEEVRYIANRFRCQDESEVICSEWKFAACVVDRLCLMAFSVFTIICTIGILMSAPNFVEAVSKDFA
Human α7 NAChR, sequence (P36544 23-502 limits assumed): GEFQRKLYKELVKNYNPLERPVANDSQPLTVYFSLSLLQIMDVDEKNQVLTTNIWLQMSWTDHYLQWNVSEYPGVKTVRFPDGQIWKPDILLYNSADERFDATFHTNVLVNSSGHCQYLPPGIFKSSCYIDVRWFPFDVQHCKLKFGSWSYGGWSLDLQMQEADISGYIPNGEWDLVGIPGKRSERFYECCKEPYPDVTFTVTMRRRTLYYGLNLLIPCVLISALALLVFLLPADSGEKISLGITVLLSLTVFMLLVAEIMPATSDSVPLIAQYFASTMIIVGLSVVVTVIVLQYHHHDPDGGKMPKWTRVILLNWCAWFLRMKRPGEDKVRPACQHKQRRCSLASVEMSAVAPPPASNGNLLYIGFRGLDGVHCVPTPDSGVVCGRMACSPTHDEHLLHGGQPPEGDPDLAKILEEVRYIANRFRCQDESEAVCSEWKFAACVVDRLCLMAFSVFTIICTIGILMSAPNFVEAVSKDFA
CYP3A4, sequence (P08684 whole entry): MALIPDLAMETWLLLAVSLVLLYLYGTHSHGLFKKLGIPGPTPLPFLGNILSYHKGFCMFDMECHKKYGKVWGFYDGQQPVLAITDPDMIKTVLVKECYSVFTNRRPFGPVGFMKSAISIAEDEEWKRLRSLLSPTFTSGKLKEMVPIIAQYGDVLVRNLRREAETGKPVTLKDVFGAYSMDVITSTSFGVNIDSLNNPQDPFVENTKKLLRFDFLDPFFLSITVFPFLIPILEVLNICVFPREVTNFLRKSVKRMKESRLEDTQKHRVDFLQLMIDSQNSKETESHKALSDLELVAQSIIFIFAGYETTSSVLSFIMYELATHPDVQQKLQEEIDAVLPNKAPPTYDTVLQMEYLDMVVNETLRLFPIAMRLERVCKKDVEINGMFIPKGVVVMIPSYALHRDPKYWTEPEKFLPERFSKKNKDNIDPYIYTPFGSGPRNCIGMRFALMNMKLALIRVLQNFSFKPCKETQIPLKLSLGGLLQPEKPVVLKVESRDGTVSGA
CYP1A2, sequence (P05177 whole entry): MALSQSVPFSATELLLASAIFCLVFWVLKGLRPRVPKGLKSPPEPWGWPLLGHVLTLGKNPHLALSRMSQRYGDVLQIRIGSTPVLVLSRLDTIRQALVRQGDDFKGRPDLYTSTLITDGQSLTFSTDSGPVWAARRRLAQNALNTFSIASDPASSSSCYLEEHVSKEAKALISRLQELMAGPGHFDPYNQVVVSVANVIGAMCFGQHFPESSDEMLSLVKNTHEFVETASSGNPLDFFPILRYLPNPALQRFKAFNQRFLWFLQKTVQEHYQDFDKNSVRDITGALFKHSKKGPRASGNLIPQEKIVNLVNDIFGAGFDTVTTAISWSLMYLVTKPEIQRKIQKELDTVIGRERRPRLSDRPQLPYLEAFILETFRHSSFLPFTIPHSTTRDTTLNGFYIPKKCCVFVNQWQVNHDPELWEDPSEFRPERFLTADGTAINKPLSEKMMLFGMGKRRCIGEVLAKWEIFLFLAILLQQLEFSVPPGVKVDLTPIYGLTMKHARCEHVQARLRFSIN

By IC50 is commonly meant the concentration at which inhibition is half-maximal. Broadly, the Ki is a dissociation constant, usually derived from enzyme kinetics or from competition with a known ligand. Low readings indicate tighter binding, high ones weaker binding. With `O=C(OCC12CCN(CC1)CC2)c1c[nH]c2cc(O)cc(Cl)c12` [Compound 46, quinuclidin-4-ylmethyl 4-chloro-6-hydroxy-1H-indole-3-carboxylate], the IC50 on CYP1A2 was above 10000 nM; at CYP2C19, above 10000 nM; against CYP3A4 it was above 10000 nM; in data set [1] it was 33.4 nM; at hERG channels it was above 30000 nM; on CYP2C9, above 10000 nM. The same compound registered a Ki in [1] of 28.6 nM.
As to `Cc1cc(Cl)c2c(C(=O)OCC34CCN(CC3)CC4)c[nH]c2c1.Cl` [Compound 65, quinuclidin-4-ylmethyl 4-chloro-6-methyl-1H-indole-3-carboxylate hydrochloride], the I/Imax on Human α7 NAChR was 0.212. In [1], this compound showed an IC50 of 63.6 nM and a Ki of 54.6 nM. The compound further returned an IC50 against hERG channels of 2430 nM.
As usually defined, the efflux ratio is the permeability from basolateral to apical divided by that in the opposite direction, in the common usage. In general, Papp A→B refers to the apparent permeability from the apical to the basolateral side of a cell layer. A higher Papp A→B goes with ready permeation. One may read the Papp B→A as how fast a substance crosses the layer from the basolateral side. `COc1c(OCC(F)(F)F)ccc2[nH]cc(C(=O)OCC34CCN(CC3)CC4)c12` [Compound 88, quinuclidin-4-ylmethyl 4-methoxy-5-(2,2,2-trifluoroethoxy)-1H-indole-3-carboxylate] yielded an I/Imax at Human α7 NAChR of 0.185. Besides, the efflux ratio at 90 min, 10 μM in data set [2] (pH 7.4, Caco-2, 10 μM) amounted to 7.86. Further, the Papp A→B at 90 min, 10 μM in data set [2] (pH 7.4, Caco-2, apical-to-basolateral, 10 μM) is 3.25 ×10⁻⁶ cm/s. In [2] (pH 7.4, Caco-2, basolateral-to-apical, 10 μM), this compound had a Papp B→A at 90 min, 10 μM of 25.5 ×10⁻⁶ cm/s. In data set [3], this compound had an IC50 of 211 nM and an inhibitory constant (Ki) of 356 nM.
